Data published in patent US6420131B1, “Use of fluorescein aryl ethers in high throughput cytochrome P450 inhibition assays” (Gentest Corporation, priority 1999, dated 2002).

What was measured:
[1] = molecular target: T1, Rat CYP1A1 (Rattus norvegicus, UniProt P00185); assay: Turnover of fluorometric substrates by rat CYP1A1; settings: substrate uM: Ia 2, AMMC 20, CEC 40, MFC 50, BFC 50, BQ 40, BzRes 50; 30 min; enzyme 50 nM (2.5 nM for CEC)
T1 sequence (P00185 1-524): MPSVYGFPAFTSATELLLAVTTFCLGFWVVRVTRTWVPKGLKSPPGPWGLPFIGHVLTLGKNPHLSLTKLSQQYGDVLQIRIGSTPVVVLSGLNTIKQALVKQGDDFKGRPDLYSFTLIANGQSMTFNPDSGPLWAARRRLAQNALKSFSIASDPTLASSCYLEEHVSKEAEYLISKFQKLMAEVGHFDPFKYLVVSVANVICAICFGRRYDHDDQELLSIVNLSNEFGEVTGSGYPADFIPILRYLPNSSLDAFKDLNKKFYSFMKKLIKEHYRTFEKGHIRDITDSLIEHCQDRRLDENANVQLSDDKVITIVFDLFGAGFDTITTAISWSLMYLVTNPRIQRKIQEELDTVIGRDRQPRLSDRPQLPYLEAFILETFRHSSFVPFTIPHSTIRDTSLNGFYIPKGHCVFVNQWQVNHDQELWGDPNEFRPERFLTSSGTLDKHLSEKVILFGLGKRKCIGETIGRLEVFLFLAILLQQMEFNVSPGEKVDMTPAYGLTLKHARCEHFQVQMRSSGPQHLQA

[2] = molecular target: T2, Rat CYP1A2 (Rattus norvegicus, UniProt P04799); assay: Turnover of fluorometric substrates by rat CYP1A2; settings: substrate uM: Ia 2, AMMC 20, CEC 40, MFC 50, BFC 50, BQ 40, BzRes 50; 30 min; enzyme 50 nM
T2 sequence (P04799 1-513): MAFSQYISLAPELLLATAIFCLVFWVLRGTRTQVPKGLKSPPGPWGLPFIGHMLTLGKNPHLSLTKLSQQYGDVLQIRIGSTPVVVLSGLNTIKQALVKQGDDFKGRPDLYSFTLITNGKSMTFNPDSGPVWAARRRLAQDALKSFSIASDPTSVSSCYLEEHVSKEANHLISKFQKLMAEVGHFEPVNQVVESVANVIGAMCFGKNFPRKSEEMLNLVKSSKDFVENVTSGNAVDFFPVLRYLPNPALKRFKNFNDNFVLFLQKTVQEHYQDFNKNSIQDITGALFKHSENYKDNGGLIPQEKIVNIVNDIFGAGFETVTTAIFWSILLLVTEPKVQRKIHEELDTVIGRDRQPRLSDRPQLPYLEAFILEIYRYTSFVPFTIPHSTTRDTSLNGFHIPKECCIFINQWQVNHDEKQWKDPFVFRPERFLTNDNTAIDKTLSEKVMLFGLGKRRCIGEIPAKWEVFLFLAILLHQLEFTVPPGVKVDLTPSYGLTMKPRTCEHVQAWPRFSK

[3] = molecular target: Rat CYP2A2 (Rattus norvegicus, UniProt P15149); assay: Turnover of fluorometric substrates by rat CYP2A2; settings: substrate uM: Ia 2, AMMC 20, CEC 40, MFC 50, BFC 50, BQ 40, BzRes 50; 30 min; enzyme 50 nM
Sequence of Rat CYP2A2 (P15149 whole entry): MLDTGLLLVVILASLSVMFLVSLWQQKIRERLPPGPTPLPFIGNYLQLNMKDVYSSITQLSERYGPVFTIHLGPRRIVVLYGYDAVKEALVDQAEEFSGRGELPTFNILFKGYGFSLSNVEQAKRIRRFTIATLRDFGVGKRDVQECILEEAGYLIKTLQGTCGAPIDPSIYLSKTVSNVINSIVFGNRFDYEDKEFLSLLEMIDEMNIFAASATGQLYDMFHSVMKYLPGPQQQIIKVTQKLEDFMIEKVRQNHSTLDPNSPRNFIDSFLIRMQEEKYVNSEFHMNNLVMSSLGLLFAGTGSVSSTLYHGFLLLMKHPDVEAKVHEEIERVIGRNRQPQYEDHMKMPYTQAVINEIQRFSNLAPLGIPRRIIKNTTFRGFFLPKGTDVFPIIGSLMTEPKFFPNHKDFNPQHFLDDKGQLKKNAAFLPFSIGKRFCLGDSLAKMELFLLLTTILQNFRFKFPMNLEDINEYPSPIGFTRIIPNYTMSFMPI

[4] = molecular target: T3, Rat CYP2C6 (Rattus norvegicus, UniProt P05178); assay: Turnover of fluorometric substrates by rat CYP2C6; settings: substrate uM: Ia 2, AMMC 20, CEC 40, MFC 50, BFC 50, BQ 40, BzRes 50; 30 min; enzyme 50 nM
T3 sequence (P05178 1-490): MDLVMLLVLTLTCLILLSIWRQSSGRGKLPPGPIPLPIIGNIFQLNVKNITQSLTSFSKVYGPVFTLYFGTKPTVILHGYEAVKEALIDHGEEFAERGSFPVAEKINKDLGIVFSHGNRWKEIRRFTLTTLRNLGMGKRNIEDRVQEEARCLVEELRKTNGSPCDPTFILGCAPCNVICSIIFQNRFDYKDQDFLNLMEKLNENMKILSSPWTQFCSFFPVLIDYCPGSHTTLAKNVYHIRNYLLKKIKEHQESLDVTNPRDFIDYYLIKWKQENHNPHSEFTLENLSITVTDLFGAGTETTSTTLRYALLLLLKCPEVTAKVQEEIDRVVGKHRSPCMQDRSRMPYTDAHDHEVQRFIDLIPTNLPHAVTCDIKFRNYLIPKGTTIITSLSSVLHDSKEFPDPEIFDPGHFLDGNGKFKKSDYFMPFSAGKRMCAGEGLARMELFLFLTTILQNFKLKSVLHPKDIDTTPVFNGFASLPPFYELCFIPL

[5] = molecular target: T4, Rat CYP3A1 (Rattus norvegicus, UniProt P04800); assay: Turnover of fluorometric substrates by rat CYP3A1; settings: substrate uM: Ia 2, AMMC 20, CEC 40, MFC 50, BFC 50, BQ 40, BzRes 50; 30 min; enzyme 50 nM
T4 sequence (P04800 1-504): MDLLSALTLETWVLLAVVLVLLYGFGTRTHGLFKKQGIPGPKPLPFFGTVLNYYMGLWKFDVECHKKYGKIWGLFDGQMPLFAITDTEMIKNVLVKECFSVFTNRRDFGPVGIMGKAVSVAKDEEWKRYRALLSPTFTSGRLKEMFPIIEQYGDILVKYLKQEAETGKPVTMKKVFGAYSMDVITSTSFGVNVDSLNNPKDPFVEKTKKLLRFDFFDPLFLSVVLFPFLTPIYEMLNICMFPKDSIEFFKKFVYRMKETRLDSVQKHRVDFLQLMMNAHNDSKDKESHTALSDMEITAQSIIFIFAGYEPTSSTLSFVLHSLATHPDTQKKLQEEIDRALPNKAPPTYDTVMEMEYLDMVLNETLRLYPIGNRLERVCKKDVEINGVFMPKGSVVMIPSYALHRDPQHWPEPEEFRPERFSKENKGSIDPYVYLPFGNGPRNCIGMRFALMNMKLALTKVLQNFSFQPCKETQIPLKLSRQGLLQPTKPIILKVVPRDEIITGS

[6] = molecular target: T5, Rat CYP2C11 (Rattus norvegicus, UniProt P08683); assay: Turnover of fluorometric substrates by rat CYP2C11; settings: substrate uM: Ia 2, AMMC 20, CEC 40, MFC 50, BFC 50, BQ 40, BzRes 50; 30 min; enzyme 50 nM
T5 sequence (P08683 1-500): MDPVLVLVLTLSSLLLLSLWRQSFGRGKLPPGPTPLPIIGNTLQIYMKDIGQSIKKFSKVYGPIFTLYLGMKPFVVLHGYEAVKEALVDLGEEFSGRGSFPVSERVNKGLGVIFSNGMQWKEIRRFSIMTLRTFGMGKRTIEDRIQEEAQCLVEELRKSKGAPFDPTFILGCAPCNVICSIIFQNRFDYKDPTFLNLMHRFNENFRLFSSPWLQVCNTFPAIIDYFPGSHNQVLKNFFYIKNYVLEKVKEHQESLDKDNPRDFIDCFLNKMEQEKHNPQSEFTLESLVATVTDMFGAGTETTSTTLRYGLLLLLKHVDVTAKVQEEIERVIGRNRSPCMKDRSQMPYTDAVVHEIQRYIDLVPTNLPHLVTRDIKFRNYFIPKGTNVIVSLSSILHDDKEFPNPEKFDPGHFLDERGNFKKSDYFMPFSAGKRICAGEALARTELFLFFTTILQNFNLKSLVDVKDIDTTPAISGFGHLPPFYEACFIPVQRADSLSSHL

Row | SMILES | Turnover Numbers, CYP1A1 [1] | Turnover Numbers, CYP1A2 [2] | Turnover Numbers, CYP2A2 [3] | Turnover Numbers, CYP2C6 [4] | Turnover Numbers, CYP3A1 [5] | Turnover Numbers, CYP2C11 [6]
1 | CCOc1ccc2cc(C#N)c(=O)oc2c1 [CEC, 7-Ethoxy-3-cyanocoumarin] | 78 pmol product/min/pmol enzyme | 1.38 pmol product/min/pmol enzyme | 0.04 pmol product/min/pmol enzyme | 2.14 pmol product/min/pmol enzyme | 0.08 pmol product/min/pmol enzyme | 0.55 pmol product/min/pmol enzyme
2 | c1ccc(COc2ccc3cccnc3c2)cc1 [BQ, 7-Benzyloxyquinoline] | 5.7 pmol product/min/pmol enzyme | 2.3 pmol product/min/pmol enzyme | 2.8 pmol product/min/pmol enzyme | 1.9 pmol product/min/pmol enzyme | 8.4 pmol product/min/pmol enzyme | 
3 | O=c1cc(C(F)(F)F)c2ccc(OCc3ccccc3)cc2o1 [BFC, 7-Benzyloxy-4-trifluoromethylcoumarin] | 0.34 pmol product/min/pmol enzyme |  | 0.26 pmol product/min/pmol enzyme | 2.62 pmol product/min/pmol enzyme | 1.33 pmol product/min/pmol enzyme | 0.34 pmol product/min/pmol enzyme
4 | COc1ccc2c(C(F)(F)F)cc(=O)oc2c1 [MFC, 7-Methoxy-4-trifluoromethylcoumarin] | 1.03 pmol product/min/pmol enzyme | 1.32 pmol product/min/pmol enzyme | 0.08 pmol product/min/pmol enzyme | 11.5 pmol product/min/pmol enzyme |  | 5.57 pmol product/min/pmol enzyme
5 | O=c1ccc2nc3ccc(OCc4ccccc4)cc3oc-2c1 [BzRes, 7-benzyloxyresorufin] | 1.35 pmol product/min/pmol enzyme | 0.62 pmol product/min/pmol enzyme |  | 0.02 pmol product/min/pmol enzyme | 0.06 pmol product/min/pmol enzyme | 0.05 pmol product/min/pmol enzyme
6 | O=C(OCc1ccccc1)c1ccccc1-c1c2ccc(=O)cc-2oc2cc(OCc3ccccc3)ccc12 [Compound Ia, O-Benzylfluorescein Benzyl Ester] | 0.211 pmol product/min/pmol enzyme | 0.041 pmol product/min/pmol enzyme | 0.030 pmol product/min/pmol enzyme | 0.021 pmol product/min/pmol enzyme | 0.027 pmol product/min/pmol enzyme | 0.065 pmol product/min/pmol enzyme
